Experiments:
HMG-CoA reductase = target: T1, HMG-CoA reductase (Rattus norvegicus, UniProt P51639); assay: Inhibition of HMG-CoA reductase activity in solubilized enzyme preparations from rat liver microsomes; type: biochemical; settings: sodium salts of the dihydroxycarboxylic acids; mean of 3 parallel samples; read-out: IC50 (molar concentration necessary for a 50% inhibition)
T1 construct: solubilized enzyme preparations from liver microsomes of rats; from tissue; host or cells: rat liver microsomes (cholestyramine-induced rats), solubilized
T1 sequence (P51639 1-887): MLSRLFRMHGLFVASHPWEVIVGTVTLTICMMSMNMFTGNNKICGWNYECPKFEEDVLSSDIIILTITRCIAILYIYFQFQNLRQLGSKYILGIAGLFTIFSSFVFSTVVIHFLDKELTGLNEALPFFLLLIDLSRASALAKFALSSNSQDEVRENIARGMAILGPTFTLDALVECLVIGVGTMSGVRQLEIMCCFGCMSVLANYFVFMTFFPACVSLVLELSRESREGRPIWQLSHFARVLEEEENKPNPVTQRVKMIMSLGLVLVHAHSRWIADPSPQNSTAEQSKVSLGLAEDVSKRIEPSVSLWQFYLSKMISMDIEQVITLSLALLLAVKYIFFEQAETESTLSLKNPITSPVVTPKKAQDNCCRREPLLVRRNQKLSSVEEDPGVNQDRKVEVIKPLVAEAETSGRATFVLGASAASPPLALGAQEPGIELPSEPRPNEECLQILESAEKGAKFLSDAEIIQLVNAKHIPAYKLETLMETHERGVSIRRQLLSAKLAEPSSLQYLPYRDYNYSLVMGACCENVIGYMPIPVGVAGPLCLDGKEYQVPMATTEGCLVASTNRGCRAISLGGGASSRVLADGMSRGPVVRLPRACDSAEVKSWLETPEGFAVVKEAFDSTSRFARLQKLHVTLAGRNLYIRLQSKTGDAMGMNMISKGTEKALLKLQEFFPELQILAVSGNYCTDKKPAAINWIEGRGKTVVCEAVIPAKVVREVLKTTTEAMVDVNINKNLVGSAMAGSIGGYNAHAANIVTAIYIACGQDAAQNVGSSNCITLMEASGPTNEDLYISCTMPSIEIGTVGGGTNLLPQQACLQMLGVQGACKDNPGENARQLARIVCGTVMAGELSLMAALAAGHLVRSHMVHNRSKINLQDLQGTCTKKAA
Description: 1) Inhibition of HKG-CoA reductase activity in solubilized enzyme preparations from rat liver microsomes
HMG-CoA reductase activity was measured on solubilized enzyme preparations from liver microsomes of rats which had been induced by conversion into the day/night rhythm using cholestyramine (®Cuemid). (S,R)^14 C-HMG-CoA was used as a substrate, and the concentration of NADPH was maintained during the incubation by a regenerating system. The separation of ^14 C-mevalonate from substrate and other products (for example ^14 C-HMG) was carried out by column elution, the elution profile of each individual sample being determined. The regular addition of ^3 H-mevalonate was avoided as the determination gives the data relative to the inhibitory action. The enzyme-free control, the enzyme-containing normal mixture (=100%) and those containing preparation additives were in each case treated together in one series of experiments. The sodium salts of the dihydroxycarboxylic acids of the formula II were always employed as the preparation in this test. Each individual value was formed as the mean value of 3 parallel samples. The significance of the mean value differences between preparation-free and preparation-containing samples was evaluated by the t-test.

HEP G2 cells = assay: Inhibition of cholesterol biosynthesis in cell cultures (HEP G2 cells), incorporation of 14C-sodium acetate in cholesterol; type: cell-based; settings: for IC50: Homo sapiens, HepG2, sodium salts, test compounds corrected by deviation of mevinolin sodium from its mean value, read-out: IC50 (concentration necessary for a 50% inhibition); for Relative potency in %: mevinolin sodium = 100, from IC50
Description: 2) Inhibition of cholesterol biosynthesis in cell cultures (EEP G2 cells)
Determination of the inhibition of the incorporation of ^14 C-sodium acetate in cholesterol
Monolayers of HEP G2 cells in lipoprotein-free medium were preincubated with various concentrations of the sodium salts of the dihydroxycarboxylic acids of the formula II for 1 hour. After adding ^14 C-labeled sodium acetate, the incubation was continued for 3 hours. Tritium-labeled cholesterol was added as an internal standard and an aliquot of the cells was subjected to alkaline hydrolysis. The lipids were extracted using chloroform/methanol 2: 1. After adding carrier cholesterol, the lipid mixture was preparatively separated on TLC plates using chloroform/acetone 9: 1. The cholesterol zone was made visible by staining with iodine vapor, additionally detected using a TLC radio scanner and then scraped off. The amount of ^14 C-cholesterol formed was determined scintigraphically and related to mg of cell protein. The same procedure was carried out with cells from the Bame culture without preincubation with a test compound (so-called "solvent control"). The potency of the test compounds was determined by comparison of the biosynthesized ^14 C-cholesterol in test runs and in "solvent control".

[1] = test system: microsomal lipid peroxidation; assay: Inhibition of microsomal lipid peroxidation (in vitro); type: biochemical; settings: for IC50: microsomes, read-out: IC50 (50% inhibition of lipid peroxidation)
Description: 5) Inhibition of microsomal lipid peroxidation (in vitro)
The inhibition of lipid peroxidation was measured under the experimental conditions described by H. Wafers and H. Sies, Eur. J. Biochem. 174, 353-357 (1988). The microsomes were obtained according to the literature cited therein. IC50 denotes the concentration of the test compound in moles per liter which causes a 50% inhibition of lipid peroxidation.

serum lipoproteins = assay: Action on serum lipoproteins and other metabolic parameters of male rats in the subchronic test; type: in vivo; settings: rat; for Body weight, % changes in the mean value relative to starting / Food consumption, % changes in the mean value relative to control / Glycerol VLDL, % change compared to control / Liver weight, % changes in the mean value relative to control / Protein LDL, % change compared to control / Protein VLDL, % change compared to control / Total cholesterol HDL, % change compared to control / Total cholesterol LDL, % change compared to control / Total cholesterol VLDL, % change compared to control: 7 administrations; for Cholesterol HDL/LDL: control standardization to 1.00
Description: 3) Action on serum lipoproteins and other metabolic parameters of male rats in the subchronic test
Groups of male rats of the strain HOE: WISKf (SPF 71) having a starting weight of above 180 g received the test preparations daily in the morning (sodium salts of the dihydroxycarboxylic acids of the formula II) in polyethylene glycol 400 by stomach tube; the respective control group received only the vehicle. The last (7th) administration was carried out 24 hours before taking blood and sacrificing. There was free access to food and water during the experiment. 24 hours before taking blood, which wall carried out retroorbitally under slight ether anesthesia before and after the treatment period (i.e. on the 1st and 8th day), the food was withdrawn. Total cholesterol was determined in the serum of each individual animal [CHODPAP high performance method of Boehringer Mannheim], and, as a measure of the triglycerides, total glycerol was also determined analytically from the serum pool of all the animals of one group [GPO-PAP high performance method, Boehringer Mannheim].
Immediately after taking blood, the animals were sacrificed by dislocation of the spine, and the relative liver weight, the change in body weight and the food consumption were determined.
For the analysis of the serum lipoproteins, the serum of all the rats of one group was pooled. The serum lipoproteins were separated using the preparative ultracentrifuge.
The following conditions were used for the separation of the fractions VLDL, LDL and HDL:
The determination of the protein was carried out by the method of Lowry et al. [LOWRY O. H., ROSEBOROUGH, N.J., PARR, A. L. and RANDELL, R. J.: J. Biol. Chem. 193, 265 (1951)].

LDL = assay: Inhibition of Cu2+-catalyzed LDL oxidation in vitro; type: biochemical, porcine; settings: 5 μM Cu2+, 2 hours at 37° C.; for IC50: fluorescence 430 nm, read-out: IC50 (50% inhibition of LDL oxidation)
Description: 6) Inhibition of Cu^2+ -catalyzed LDL oxidation in vitro LDL was isolated from porcine plasma which contained EDTA (1 mg/ml) by ultracentrifugation in salt solutions of NaCl/NaBr between the densities 1.019 and 1.063 g/ml (cf. R. J. Havel et al., J. Clin. Invest. 43, 1345 (1955)). LDL was then dialyzed against phosphate-buffered saline (160 mM NaCl, 10 mM NaH2 PO4), pH 7.4 and stored under nitrogen at 4° C. Before the oxidation process, the LDL fractions were diluted to a final protein concentration of 0.1 mg/ml using phosphate-buffered saline and 2.5 ml aliquot parts were pre-incubated under nitrogen with the test compounds (25 μl of ethanolic solution) for 1 hour at 37° C. (cf. McLean et al., Biochemistry 1989, 28, 321). For the Cu^2+ -catalyzed oxidation of LDL, 12.5 μl of a 1 mM CuSO4 solution were added to each sample, a 5 μM Cu^2+ concentration resulting. The incubation was carried out for 2 hours at 37° C. and in an air atmosphere. The fluorescence intensity was measured at 430 nm (excitation wavelength 365 nm) (cf. Steinbrecher, U. P., J. Biol. Chem. 1987, 262, 3603). […] In addition, the inhibition using a 10^-5 N concentration of the test compound is indicated in %.

[2] = 100 mg/kg daily by stomach tube

| IC50 (HMG-CoA reductase) [nM] | IC50 (HEP G2 cells) [nM] | IC50 [1] [nM] | IC50 (LDL) [nM] | SMILES | Relative potency in % (HEP G2 cells) [%] | Inhibition at 10^-5 mol/l [1] [%] | other results |
| --- | --- | --- | --- | --- | --- | --- | --- |
| 8 | 9.2 | – | – | CC(C)Sc1cc(-c2ccc(F)cc2)c(OC[C@@H](O)C[C@@H](O)CC(=O)O)c(C(C)C)c1 [Example 5, Sodium 3(R),S(S)-dihydroxy-6-[(2-p-fluorophenyl-4-isopropylthio-6-isopropyl)phenoxy]hexanoate] | 543 | 0 | – |
| 2 | 2.2 | – | – | O=C(O)C[C@H](O)C[C@H](O)COc1c(-c2ccc(F)cc2)cc(Sc2ccc(F)cc2)cc1C1CC1 [Example 2] | 2273 | < 10 | – |
| 3 | 1700 | 2700 | – | CC(C)c1cc(SC(C)(C)Sc2cc(-c3ccc(F)cc3)c(OC[C@@H](O)C[C@@H](O)CC(=O)O)c(C(C)C)c2)cc(-c2ccc(F)cc2)c1O [Example 6, Sodium 3(R),5(S)-dihydroxy-6-(2-isopropyl-4-[(3-isopropyl-4-sodio-oxy-5-p-fluorophenyl-l-phenylthio)-2-propyl-2-thio]-6-p-fluorophenylphenoxy)hexanoate] | 3 | 98 | Body weight, % changes in the mean value relative to starting (serum lipoproteins; 30 mg/kg daily by stomach tube): +5%; Food consumption, % changes in the mean value relative to control (serum lipoproteins; 30 mg/kg daily by stomach tube): -1%; Glycerol VLDL, % change compared to control (serum lipoproteins; 30 mg/kg daily by stomach tube): +8%; Liver weight, % changes in the mean value relative to control (serum lipoproteins; 30 mg/kg daily by stomach tube): +3%; Protein LDL, % change compared to control (serum lipoproteins; 30 mg/kg daily by stomach tube): -24%; Protein VLDL, % change compared to control (serum lipoproteins; 30 mg/kg daily by stomach tube): -4%; Total cholesterol HDL, % change compared to control (serum lipoproteins; 30 mg/kg daily by stomach tube): +13%; Total cholesterol LDL, % change compared to control (serum lipoproteins; 30 mg/kg daily by stomach tube): -26%; Total cholesterol VLDL, % change compared to control (serum lipoproteins; 30 mg/kg daily by stomach tube): +12%; Cholesterol HDL/LDL (serum lipoproteins; 30 mg/kg daily): 1.27; Body weight, % changes in the mean value relative to starting (serum lipoproteins; [2]): +5%; Food consumption, % changes in the mean value relative to control (serum lipoproteins; [2]): -1%; Glycerol VLDL, % change compared to control (serum lipoproteins; [2]): -8%; Liver weight, % changes in the mean value relative to control (serum lipoproteins; [2]): +1%; Protein LDL, % change compared to control (serum lipoproteins; [2]): +3%; Protein VLDL, % change compared to control (serum lipoproteins; [2]): -2%; Total cholesterol HDL, % change compared to control (serum lipoproteins; [2]): -3%; Total cholesterol LDL, % change compared to control (serum lipoproteins; [2]): -16%; Total cholesterol VLDL, % change compared to control (serum lipoproteins; [2]): +13%; Cholesterol HDL/LDL (serum lipoproteins; 100 mg/kg daily): 1.15 |
| 2 | 4 | – | 1100 | CC(C)c1c(O)c(C(C)C)c(C(C)C)c(OC[C@@H](O)C[C@@H](O)CC(=O)O)c1-c1ccc(F)cc1 [Example 8] | 1250 | 27 | – |
| – | – | 3000 | 1000 | CC(C)c1cc(Sc2ccc(F)cc2)cc(-c2ccc(F)cc2)c1O [Process Example 6, 2-(p-Fluorophenyl)-4-(p-fluorophenylthio)-6-isopropylphenol] | – | 95 | – |
| 8 | 8 | – | – | CC(C)c1cc(Sc2ccccc2)cc(-c2ccc(F)cc2)c1OC[C@@H](O)C[C@@H](O)CC(=O)O [Example 4] | 625 | – | – |
| – | – | – | > 10000 | CC(C)c1cc(Sc2ccc(F)cc2)cc(-c2ccc(F)cc2)c1OC[C@@H]1C[C@@H](O)CC(=O)O1 [Example 10, 4(R)-Hydroxy-6(S)-[(2-p-fluorophenyl-4-p-fluorophenylthio-6-isopropyl)phenoxymethyl]-3,4,5,6-tetrahydro-2H-pyran-2-one] | – | – | Inhibition at 10^-5 M (LDL; 10^-5 M): 23% |

| SMILES | IC50 (HMG-CoA reductase) [nM] | IC50 (HEP G2 cells) [nM] | IC50 [1] [nM] | IC50 (LDL) [nM] | Relative potency in % (HEP G2 cells) [%] | Inhibition at 10^-5 mol/l [1] [%] | other results |
| --- | --- | --- | --- | --- | --- | --- | --- |
| CC(C)c1cc(SC(C)(C)Sc2cc(-c3ccc(F)cc3)c(OC[C@@H](O)C[C@@H](O)CC(=O)O)c(C(C)C)c2)cc(-c2ccc(F)cc2)c1OC[C@@H](O)C[C@@H](O)CC(=O)O [Example 7, 4,4-(Isopropylidenedithio)-bis-<{1-[(2S,4R)-dihydroxy-5-sodiocarboxy]pentoxy-2-isopropyl-6-p-fluorophenyl}benzene>] | 1 | 920 | – | – | 5 | < 10 | Body weight, % changes in the mean value relative to starting (serum lipoproteins; [2]): +5%; Glycerol VLDL, % change compared to control (serum lipoproteins; [2]): -3%; Liver weight, % changes in the mean value relative to control (serum lipoproteins; [2]): -1%; Protein LDL, % change compared to control (serum lipoproteins; [2]): -8%; Protein VLDL, % change compared to control (serum lipoproteins; [2]): -15%; Total cholesterol HDL, % change compared to control (serum lipoproteins; [2]): +9%; Total cholesterol LDL, % change compared to control (serum lipoproteins; [2]): -52%; Total cholesterol VLDL, % change compared to control (serum lipoproteins; [2]): -23%; Cholesterol HDL/LDL (serum lipoproteins; 100 mg/kg daily): 2.25 |
| CC(=O)Oc1c(C(C)C)c(-c2ccc(F)cc2)c(O)c(C(C)C)c1C(C)C [Process Example 25, 2,3,5-Triisopropyl-4-acetoxy-6-(p-fluorophenyl)phenol] | – | – | 4800 | 150 | – | 83 | – |

Source: patent US5294724A, “4-hydroxytetrahydropyran-2-ones and the corresponding dihydroxycarboxylic acid derivatives, salts and esters and a process for their preparation” (priority 1989, dated 1994)
